# Source: PubChem BioAssay (NCI)
#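 How tested: cells in 96-well plates exposed to compound for 48 hours at five concentrations. Definition used: TGI = concentration required for complete inhibition of growth.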
# Tests used:
# Experiment in all cases: NCI tumour cell line growth inhibition, 48 h
# [1] = test system: MOLT-4 leukemia
# [2] = test system: PC-3 prostate
# [3] = test system: A498 renal
# [4] = test system: HOP-62 NSCLC
# [5] = test system: SK-MEL-2 melanoma
# [6] = test system: OVCAR-4 ovarian
# [7] = test system: KM12 colon
# [8] = test system: CAKI-1 renal
# [9] = test system: NCI-H23 lung
# [10] = test system: TK-10 renal
# [11] = test system: ACHN renal
# [12] = test system: HT29 colon
# [13] = test system: HCT-116 colon
# [14] = test system: HCT-15 colon
# [15] = test system: OVCAR-3 ovarian
# [16] = test system: MDA-MB-231 breast
# [17] = test system: A549 NSCLC
# [18] = test system: RXF 393 renal
# [19] = test system: SF-539 CNS
# [20] = test system: OVCAR-8 ovarian
# [21] = test system: DU-145 prostate
# [22] = test system: SF-268 CNS
# [23] = test system: NCI-H522 lung
# [24] = test system: SNB-75 CNS
# [25] = test system: SR leukemia
# [26] = test system: BT-549 breast
# [27] = test system: U251 CNS
# [28] = test system: UACC-62 melanoma
# [29] = test system: LOX IMVI melanoma
# [30] = test system: SF-295 CNS
# [31] = test system: EKVX NSCLC
# [32] = test system: UO-31 renal
# [33] = test system: MALME-3M melanoma
# [34] = test system: NCI-H226 lung
# [35] = test system: MCF7 breast
# [36] = test system: COLO 205 colon
# [37] = test system: RPMI-8226 leukemia
# [38] = test system: M14 melanoma
# [39] = test system: K-562 leukemia
# [40] = test system: HOP-92 NSCLC
# [41] = test system: MDA-N
# [42] = test system: HCC-2998 colon
# [43] = test system: SK-MEL-28 melanoma
# [44] = test system: SK-MEL-5 melanoma
# [45] = test system: OVCAR-5 ovarian
# [46] = test system: UACC-257 melanoma
# [47] = test system: HL-60(TB) leukemia
# [48] = test system: CCRF-CEM leukemia
# [49] = test system: 786-0 renal
# [50] = test system: IGROV1 ovarian
# [51] = test system: SK-OV-3 ovarian
# [52] = test system: HS 578T breast
# [53] = test system: NCI/ADR-RES ovarian
# [54] = test system: MDA-MB-435
# [55] = test system: NCI-H460 lung
# [56] = test system: T-47D breast
# [57] = test system: SNB-19 CNS
# [58] = test system: SN12C renal
# [59] = test system: SW-620 colon
smiles,measurement,setting,value
OC1c2c(ccc3c2CCC3)CC12Cc1ccccc1C2 (configuration not stated),TGI,[1],> 100 µM
same,TGI,[2],30.3 µM
same,TGI,[3],30.2 µM
same,TGI,[4],30.1 µM
same,TGI,[5],28.8 µM
same,TGI,[6],38.3 µM
same,TGI,[7],29.7 µM
same,TGI,[8],33.4 µM
same,TGI,[9],30.9 µM
same,TGI,[10],28 µM
same,TGI,[11],32.7 µM
same,TGI,[12],31.3 µM
same,TGI,[13],29.7 µM
same,TGI,[14],30.2 µM
same,TGI,[15],26.5 µM
same,TGI,[16],29.4 µM
same,TGI,[17],34.5 µM
same,TGI,[18],27.2 µM
same,TGI,[19],35.8 µM
same,TGI,[20],33.7 µM
same,TGI,[21],31.2 µM
same,TGI,[22],29.4 µM
same,TGI,[23],30.3 µM
same,TGI,[24],35.6 µM
same,TGI,[25],44.6 µM
same,TGI,[26],31.6 µM
same,TGI,[27],29.7 µM
same,TGI,[28],29.4 µM
same,TGI,[29],29.4 µM
same,TGI,[30],31.9 µM
same,TGI,[31],31.4 µM
same,TGI,[32],27.4 µM
same,TGI,[33],25.2 µM
same,TGI,[34],26.6 µM
same,TGI,[35],32.8 µM
same,TGI,[36],31.9 µM
same,TGI,[37],50.8 µM
same,TGI,[38],28.8 µM
same,TGI,[39],54.9 µM
same,TGI,[40],25.8 µM
same,TGI,[41],28.8 µM
same,TGI,[42],27.5 µM
same,TGI,[43],30.5 µM
same,TGI,[44],29.3 µM
same,TGI,[45],31.3 µM
same,TGI,[46],27.4 µM
same,TGI,[47],44.7 µM
same,TGI,[48],83.1 µM
same,TGI,[49],30.9 µM
same,TGI,[50],47.5 µM
same,TGI,[51],32.9 µM
same,TGI,[52],35.5 µM
same,TGI,[53],35.4 µM
same,TGI,[54],29.5 µM
same,TGI,[55],33 µM
same,TGI,[56],53.5 µM
same,TGI,[57],32.9 µM
same,TGI,[58],28.8 µM
same,TGI,[59],32.8 µM
O=C(O)CCc1ccc(-c2ccccc2)[nH]1,TGI,[1],> 100 µM
same,TGI,[2],> 100 µM
same,TGI,[3],> 100 µM
same,TGI,[4],> 100 µM
same,TGI,[5],> 100 µM
same,TGI,[6],> 100 µM
same,TGI,[7],> 100 µM
same,TGI,[8],> 100 µM
same,TGI,[9],> 100 µM
same,TGI,[10],> 100 µM
same,TGI,[11],> 100 µM
same,TGI,[12],> 100 µM
same,TGI,[13],> 100 µM
same,TGI,[14],> 100 µM
same,TGI,[15],> 100 µM
same,TGI,[16],> 100 µM
same,TGI,[17],> 100 µM
same,TGI,[18],> 100 µM
same,TGI,[19],> 100 µM
same,TGI,[20],> 100 µM
same,TGI,[21],> 100 µM
same,TGI,[22],> 100 µM
same,TGI,[23],> 100 µM
same,TGI,[24],> 100 µM
same,TGI,[25],> 100 µM
same,TGI,[26],> 100 µM
same,TGI,[27],> 100 µM
same,TGI,[28],> 100 µM
same,TGI,[29],> 100 µM
same,TGI,[30],> 100 µM
same,TGI,[31],> 100 µM
same,TGI,[32],> 100 µM
same,TGI,[33],> 100 µM
same,TGI,[34],> 100 µM
same,TGI,[35],> 100 µM
same,TGI,[36],> 100 µM
same,TGI,[37],> 100 µM
same,TGI,[38],> 100 µM
same,TGI,[39],> 100 µM
same,TGI,[40],> 100 µM
same,TGI,[41],> 100 µM
same,TGI,[42],> 100 µM
same,TGI,[43],> 100 µM
same,TGI,[44],> 100 µM
same,TGI,[45],> 100 µM
same,TGI,[46],> 100 µM
same,TGI,[47],> 100 µM
same,TGI,[48],> 100 µM
same,TGI,[49],> 100 µM
same,TGI,[50],> 100 µM
same,TGI,[51],> 100 µM
same,TGI,[52],> 100 µM
same,TGI,[53],> 100 µM
same,TGI,[54],> 100 µM
same,TGI,[55],> 100 µM
same,TGI,[56],> 100 µM
same,TGI,[57],> 100 µM
same,TGI,[58],> 100 µM
same,TGI,[59],> 100 µM
O=c1ssc2c1Nc1c(ssc1=O)S2,TGI,[1],28.4 µM
same,TGI,[2],25.5 µM
same,TGI,[3],24.7 µM
same,TGI,[4],36.4 µM
same,TGI,[5],32.1 µM
same,TGI,[6],28.2 µM
same,TGI,[7],28.6 µM
same,TGI,[8],33.3 µM
same,TGI,[9],35.3 µM
same,TGI,[10],29.5 µM
same,TGI,[11],30.2 µM
same,TGI,[12],73.8 µM
same,TGI,[13],31.2 µM
same,TGI,[14],41.3 µM
same,TGI,[15],32.4 µM
same,TGI,[16],57.3 µM
same,TGI,[17],41 µM
same,TGI,[18],17.4 µM
same,TGI,[19],21.5 µM
same,TGI,[20],28.6 µM
same,TGI,[21],26.2 µM
same,TGI,[22],33.5 µM
same,TGI,[23],37.4 µM
same,TGI,[24],30.2 µM
same,TGI,[25],5.49 µM
same,TGI,[26],52.5 µM
same,TGI,[27],33.3 µM
same,TGI,[28],27.3 µM
same,TGI,[29],24.3 µM
same,TGI,[30],74.7 µM
same,TGI,[31],30 µM
same,TGI,[32],24.4 µM
same,TGI,[33],22.4 µM
same,TGI,[34],46.5 µM
same,TGI,[35],39.2 µM
same,TGI,[36],36.4 µM
same,TGI,[37],21.1 µM
same,TGI,[38],27.2 µM
same,TGI,[39],25.2 µM
same,TGI,[40],28.7 µM
same,TGI,[41],31.9 µM
same,TGI,[42],29.4 µM
same,TGI,[43],34.2 µM
same,TGI,[44],29.4 µM
same,TGI,[45],32.4 µM
same,TGI,[46],28.3 µM
same,TGI,[47],15.5 µM
same,TGI,[48],6.8 µM
same,TGI,[49],14.5 µM
same,TGI,[50],26.4 µM
same,TGI,[51],36.3 µM
same,TGI,[52],> 100 µM
same,TGI,[53],37.4 µM
same,TGI,[54],33.5 µM
same,TGI,[55],36.4 µM
same,TGI,[56],26.2 µM
same,TGI,[57],34.7 µM
same,TGI,[58],28.1 µM
same,TGI,[59],31.1 µM
